Patent US6528511B2, “Partial fatty acid oxidation inhibitors in the treatment of congestive heart failure” (CV Therapeutics, Inc., priority 2000, dated 2003)
Where two headings read alike, the source gives them in different places.

Legend:
[1] = Arterial plasma ranolazine concentration in normal and heart failure dogs (HPLC-MS); format: in vivo, dog; conditions: for Average ranolazine concentration during the final 10 minutes of treatment: dihydrochloride iv bolus 0.5 mg/kg then 1.0 mg/kg/hr for 40 min, mean±SEM
Description: In each normal or heart failure dog, ranolazine dihydrochloride was administered in saline as an intravenous bolus injection of 0.5 mg/kg followed by a continuous intravenous infusion of 1.0 mg/kg/hr for 40 min. Arterial blood samples were drawn for determination of plasma ranolazine concentration. Samples were obtained at 5, 10, 20, 30, 35 and 40 min after initiation of treatment. Ranolazine was measured by high performance liquid chromatography (HPLC) using mass spectral detection. Following the withdrawal of the final blood sample at 40 min, hemodynamic and angiographic measurements were repeated.

dogs with heart failure = assay: Canine model of congestive heart failure (intracoronary microembolizations), hemodynamic and angiographic measurements; format: in vivo, dog; conditions: iv bolus 0.5 mg/kg then 1.0 mg/kg/hr for 40 min
Description: The efficacy of ranolazine was studied using a canine model of congestive heart failure. Chronic LV dysfunction and failure was produced by multiple sequential intracoronary embolizations with polystyrene Latex microspheres (70-102 μm in diameter) which results in loss of viable myocardium. In the present study, 13 healthy mongrel dogs weighing between 23 and 25 kg underwent coronary microembolizations to produce heart failure. Intracoronary microembolizations were performed during cardiac catheterization under general anesthesia and sterile conditions. The anesthesia regimen consisted of intravenous oxymorphone hydrochloride (0.22 mg/kg), diazepam (0.17 mg/kg) and sodium pentobarbital (150-250 mg to effect). Dogs underwent an average of 5 microembolization procedures performed 1 to 3 weeks apart. Embolizations were discontinued when LV ejection fraction, determined angiographically, was <30%. Dogs were maintained for a period of 2-3 weeks to ensure that infarctions produced by the last microembolization were completely healed before studies were initiated. […] (The study was approved by the Henry Ford Health System Care of Experimental Animals Committee and conformed to the “Position of the American Heart Association on Research Animal Use,” adopted by the Association in November 1984, and to the Guiding Principles of the American Physiological Society on use of research animals). On the day of the study and following general anesthesia, aortic and LV pressure were measured with a catheter-tip micromanometer (Millar Instruments, Houston, Tex.) positioned through a femoral arteriotomy. Single-plane left ventriculograms were obtained during each catheterization after completion of the hemodynamic measurements with the dog placed on its right side. Ventriculograms were recorded on 35 mm cine film at 30 frames per second during the injection of 20 ml of contrast material (Reno-M-60, Squib, Princeton, N.J.). Correction for image magnification was made with a calibrated radiopaque grid placed at the level of the LV. Left ventricular end-systolic and end-diastolic volumes were calculated from ventricular silhouettes using the area-length method. The LV ejection fraction was calculated as the ratio of the difference of end-diastolic volume and end-systolic volume to end-diastolic volume times 100. Stroke volume was calculated as the difference between LV end-systolic and end-diastolic volumes obtained from the ventriculogram. Cardiac output was calculated as the product of stroke volume and heart rate. Extra systolic and post-extra systolic beats were excluded from all analyses. In each normal or heart failure dog, ranolazine dihydrochloride was administered in saline as an intravenous bolus injection of 0.5 mg/kg followed by a continuous intravenous infusion of 1.0 mg/kg/hr for 40 min. Arterial blood samples were drawn for determination of plasma ranolazine concentration. Samples were obtained at 5, 10, 20, 30, 35 and 40 min after initiation of treatment. Ranolazine was measured by high performance liquid chromatography (HPLC) using mass spectral detection. Following the withdrawal of the final blood sample at 40 min, hemodynamic and angiographic measurements were repeated. Each animal served as its own control. Pre-treatment values were compared to post-treatment values using a two-tailed paired Student's t-test with significance set at p<0.05. Data are presented as the mean±standard error of the mean.

[2] = Ascending-dose SR bid study in healthy male volunteers, Day 5 pharmacokinetics of racemate and enantiomers; format: in vivo, human; conditions: for concentration at 96 h / concentration at 108 h: male, human, plasma, oral; for concentration at 96 h: read-out: C96h; for concentration at 108 h: read-out: C108h; for Differences in pharmacokinetic parameters between enantiomers: multiple dosing with SR formulation
Description: This Example evaluated the safety and tolerability of administering racemic ranolazine free base formulations as in Example 3D. The individual and mean concentrations of racemic ranolazine and its enantiomers, (R)-(+)-N-(2,6-dimethylphenyl)-4-[2-hydroxy-3-(2 methoxyphenoxy)-propyl]-1-piperazineacetamide, (S)-(−)-N-(2,6-dimethylphenyl)-4-[2hydroxy-3-(2-methoxyphenoxy)-propyl]-1-piperazineacetamide in human plasma were also determined.
The study was performed with ascending doses of sustained release ranolazine dosage forms. Before and at intervals during and after the dosing period, blood samples were drawn for ranolazine assay and blood pressure, heart rate, ECG and symptoms were monitored throughout. Data summaries were reviewed after each phase before proceeding to the next phase of the study. Eight subjects, all healthy male volunteers aged between 18 and 40 entered and all completed the study and were available for pharmacokinetic and safety analysis. The subjects were each given doses of the various types of ranolazine free base in the form of sustained release tablets including 500 mg and 750 mg tablets or with matching placebo as necessary (2×750 mg size plus 1×500 mg size) to make unit oral doses of 1500 and 2000 mg.
In each phase: one dose bid for four days with a single dose on Day 5. On day 5 each volunteer underwent a full pharmacokinetic profile including supine and erect blood pressure (BP) and heart rate, ECG data, adverse events, clinical chemistry and hematology results, urinalysis results.
These tests were made using two-sided t-tests with estimates of variability from the ANOVA models. Steady state was also assessed by comparing means for C48 h, C72 h and C96 h using a mixed effects ANOVA model and untransformed and log, transformed data. For hemodynamic parameters, Day 1 pre-dose treatment means and Day 5 data were compared across treatments via two-sided t-tests using estimates of variability from mixed effects ANOVA models. Ninety and 95% confidence intervals were calculated for the treatment comparisons. No adjustments were made for multiple comparisons.

[3] = Solubility of ranolazine in aqueous solutions versus solution pH; format: physicochemical
[4] = tested on: Patients, with or without congestive heart failure, with reproducible angina-limited exercise duration; assay: Exercise treadmill tolerance testing (ETT), modified Bruce protocol, crossover versus placebo; format: in vivo, human; conditions: 500-1500 mg bid
Description: Patients, with or without congestive heart failure were withdrawn from anti-anginal drugs with reproducible anginalimited exercise duration and >1 mm ST depression were randomized to Ran (500 mg bid, 1000 mg bit and 1500 mg bid) and matching placebo (Pbo) in a double-blind, four-period, Latin square crossover design. Exercise treadmill tolerance testing (ETT) was performed following a modified Bruce protocol, at trough (12 hr after dosing) and peak (4 hr after dosing) dosing times.

COc1ccccc1OCC(O)CN1CCN(CC(=O)Nc2c(C)cccc2C)CC1 (racemic) [ranolazine, (±)-N-(2,6-dimethylphenyl)-4-[2-hydroxy-3-(2-methoxyphenoxy)-propyl]-1-piperazineacetamide]
Average ranolazine concentration during the final 10 minutes of treatment ([1]; dogs with heart failure): 0.33 ± 0.04 µg/mL
Time by which arterial ranolazine levels stabilized following the bolus injection ([1]; iv bolus plus infusion, dogs): ≤ 10 min
Average ranolazine concentration during the final 10 minutes of treatment ([1]; normal dogs): 0.3 ± 0.02 µg/mL
Effect on heart rate (dogs with heart failure; post- vs pre-treatment): no significant effects
Effect on mean aortic pressure (dogs with heart failure; post- vs pre-treatment): no significant effects
LV ejection fraction (dogs with heart failure; post- vs pre-treatment): significant increase
LV peak+dP/dt (dogs with heart failure; post- vs pre-treatment): significant increase
LV stroke volume (dogs with heart failure; post- vs pre-treatment): significant increase
LV peak−dP/dt (diastolic function) (dogs with heart failure; data not shown): increase
Cave ([2]; Day 5, 1500 mg SR bid): 4126 ± 1995 ng/mL
Cmin ([2]; Day 5, 1500 mg SR bid): 2932 ± 1918 ng/mL
Degree of fluctuation ([2]; Day 5, 1500 mg SR bid): 0.664 ± 0.336
Cave ([2]; Day 5, 2000 mg SR bid): 5705 ± 2153 ng/mL
Cmin ([2]; Day 5, 2000 mg SR bid): 4149 ± 2228 ng/mL
Degree of fluctuation ([2]; Day 5, 2000 mg SR bid): 0.591 ± 0.240
Steady-state plasma levels attained by ([2]; SR bid dosing, ranolazine free base): ≤ 4 days
concentration at 96 h ([2]; 1500 mg SR bid): 3660 ± 1920 ng/mL
concentration at 108 h ([2]; 1500 mg SR bid): 2940 ± 1940 ng/mL
concentration at 96 h ([2]; 2000 mg SR bid): 5040 ± 1800 ng/mL
concentration at 108 h ([2]; 2000 mg SR bid): 4400 ± 2400 ng/mL
USP Solubility Class ([3]; Solution pH 4.81): Freely Soluble
USP Solubility Class ([3]; Solution pH 4.89): Soluble
USP Solubility Class ([3]; Solution pH 4.90): Soluble
USP Solubility Class ([3]; Solution pH 5.04): Soluble
USP Solubility Class ([3]; Solution pH 5.35): Sparingly Soluble
USP Solubility Class ([3]; Solution pH 5.82): Slightly soluble
USP Solubility Class ([3]; Solution pH 6.46): Slightly soluble
USP Solubility Class ([3]; Solution pH 6.73): Very slightly soluble
USP Solubility Class ([3]; Solution pH 7.08): Very slightly soluble
USP Solubility Class ([3]; Solution pH 7.59 (unbuffered water)): Very slightly soluble
USP Solubility Class ([3]; Solution pH 7.79): Very slightly soluble
USP Solubility Class ([3]; Solution pH 12.66): Very slightly soluble
Solubility in aqueous solutions ([3]; pH above about 6.5): relatively insoluble
Effects vs. Pbo on rest or exercise blood pressure or heart rate [4]: no clinically meaningful effects
Exercise duration times in comparison to the placebo [4]: improved

COc1ccccc1OC[C@H](O)CN1CCN(CC(=O)Nc2c(C)cccc2C)CC1 [(+)R ranolazine, (R)-(+)-N-(2,6-dimethylphenyl)-4-[2-hydroxy-3-(2 methoxyphenoxy)-propyl]-1-piperazineacetamide]
Cave ([2]; Day 5, 1500 mg SR bid): 2144 ± 1115 ng/mL
Cmin ([2]; Day 5, 1500 mg SR bid): 1436 ± 1046 ng/mL
Degree of fluctuation ([2]; Day 5, 1500 mg SR bid): 0.833 ± 0.402
concentration at 96 h ([2]; 1500 mg SR bid): 2010 ± 1140 ng/mL
concentration at 108 h ([2]; 1500 mg SR bid): 1450 ± 1070 ng/mL
Differences in pharmacokinetic parameters between enantiomers [2]: no differences

COc1ccccc1OC[C@@H](O)CN1CCN(CC(=O)Nc2c(C)cccc2C)CC1 [(−)S ranolazine, (S)-(−)-N-(2,6-dimethylphenyl)-4-[2hydroxy-3-(2-methoxyphenoxy)-propyl]-1-piperazineacetamide]
Cave ([2]; Day 5, 1500 mg SR bid): 2201 ± 1237 ng/mL
Cmin ([2]; Day 5, 1500 mg SR bid): 1514 ± 1201 ng/mL
Degree of fluctuation ([2]; Day 5, 1500 mg SR bid): 0.824 ± 0.443
concentration at 96 h ([2]; 1500 mg SR bid): 2400 ± 1200 ng/mL
concentration at 108 h ([2]; 1500 mg SR bid): 1540 ± 1260 ng/mL
Differences in pharmacokinetic parameters between enantiomers [2]: no differences
